These results are taken from US20250134890A1, “ANTIMALARIAL HEXAHYDROPYRIMIDINE ANALOGUES” (UCB BIOPHARMA SRL, priority 2022, published 2025).

Where a name gives a salt, the structure may show the parent alone.

The first experiment relates to Plasmodium falciparum: 3D7 strain. Nature of the experiment: P. falciparum 3D7 asexual blood stage assay (SYBR green readout). It counts as cell-based. Conditions: Plasmodium falciparum, 3D7, Erythrocyte, 72 h, P. falciparum 3D7 in human erythrocytes, 72 h incubation, SYBR green fluorescence. The text has this:
The compounds of the present invention are potent inhibitors of the growth and propagation of the Plasmodium falciparum parasite in human blood.
The assay used to measure the effect of test compounds on a bloodstream stage of Plasmodium falciparum: 3D7 strain employs SYBR green as the readout. This is a dye that binds to double stranded deoxyribonucleic acid (DNA) with a resulting increase in fluorescence, allowing detection of P. falciparum DNA in infected erythrocytes, and thereby providing a measure of parasite growth and propagation.
Erythrocytes (A+blood) were prepared for both parasite culture and assay by washing 4 times with incomplete media (15.9 g RPMI 1640 (25 mM HEPES, L-glutamine), 1 g NaHCO3, 2 g glucose, 400 μL gentacin (500 mg/mL), 2 mL hypoxanthine solution (13.6 g/L in 0.1M NaOH pH 7.3) in 1 litre of media). The cells were centrifuged at 1800 g for 5 minutes, before decanting the supernatant and re-suspending in fresh incomplete media. On the final wash, the cells were re-suspended in complete media (incomplete media with 5 g/L AlbumaxII), and centrifuged at 1800 g for 3 minutes. This cell sediment was treated as 100% haematocrit.
P. falciparum 3D7 was cultured in erythrocytes at 5% haematocrit in complete media at 37° C. (1% O2, 3% CO2, balance N2). Cultures were split on a weekly basis to achieve a 1% parasitaemia in erythrocites at 5% haematocrit in fresh media. Culture media is replaced by fresh media every other day (2 times during the week).
On day 1, test compounds were added to assay plates using Echo dispensing technology ([…] and 20 points titration). 50 nL of each compound dilution was added to 50 μL of culture (5% haematocrit, 0.5% parasitaemia) and incubated for 72 h at 37° C. (1% O2, 3% CO2, balance N2). Final concentrations of test compounds ranged from 50,000 nM to 15 nM, in […].
On day 4, 10 μL SYBR green (Invitrogen S7563 supplied as 10,000×concentrate in DMSO) pre-diluted to 3×concentrate with Lysis buffer (20 mM Tris pH 7.9, 5% EDTA, 0.16% w/v, 1.6% TX100 v/v) was added to the cultures and incubated in the dark, overnight, at room temperature.
On day 5, fluorescent signal was measured using a BioTek plate reader (excitation 485 nm, emission 528 nm). All data were processed using IDBS ActivityBase. Raw data were converted into percent inhibition through linear regression by setting the high inhibition control (mefloquine) as 100% and the no inhibition control (DMSO) as 0%. Quality control criteria for passing plates were as follows: Z′>0.5, S:B>3, % CV(no inhibition control)<15. The formula used to calculate Z′ is: […]
All EC50 curve fitting was undertaken using the following bi-phasic two site dose response using XLfit model 300 (IDBS):
where A=100 minus the top of the upper curve 1 and the bottom of lower curve; B=Hill slope; log(C)=IC50 concentration at lower site; log(D)=IC50 concentration at upper site; x=inhibitor concentration; and y=% inhibition.
Take `C[C@@H]1C[C@H](N2C(=N)N[C@](C)(c3cccc(-c4ccc(OC(F)F)nc4)c3Cl)CC2=O)CCS1(=O)=O` (relative stereo) [Example 70, (6S)-6-{2-Chloro-3-[6-(difluoro-methoxy)pyridin-3-yl]phenyl}-2-imino-6-methyl-3-[(2R*,4R*)-2-methyl-1,1-dioxothian-4-yl]-hexahydropyrimidin-4-one hydrochloride]: the IC50 is 85 nM.

`C[C@H]1C[C@@H](N2C(=N)N[C@](C)(c3cccc(-c4ccc(OC(F)F)nc4)c3Cl)CC2=O)CCS1(=O)=O` (relative stereo) [Example 71, (6S)-6-{2-Chloro-3-[6-(difluoro-methoxy)pyridin-3-yl]phenyl}-2-imino-6-methyl-3-[(2S*,4S*)-2-methyl-1,1-dioxothian-4-yl]-hexahydropyrimidin-4-one hydrochloride]: half-maximal inhibition (IC50) required 151 nM.

The molecule `C[C@H]1C[C@H](N2C(=N)N[C@](C)(c3cccc(-c4ccc(OC(F)F)nc4)c3Cl)CC2=O)CCS1(=O)=O` (relative stereo) [Example 73, (6S)-6-{2-Chloro-3-[6-(difluoro-methoxy)pyridin-3-yl]phenyl}-2-imino-6-methyl-3-[(2S*,4R*)-2-methyl-1,1-dioxothian-4-yl]-hexahydropyrimidin-4-one hydrochloride] yielded an IC50 of 227 nM.

The molecule `C[C@@H]1C[C@H](N2C(=N)N[C@](C)(c3cccc(-c4ccc(Cl)cn4)c3Cl)CC2=O)CCS1(=O)=O` (relative stereo) [Example 74, (6S)-6-[2-Chloro-3-(5-chloro-pyridin-2-yl)phenyl]-2-imino-6-methyl-3-[(2R*,4R*)-2-methyl-1,1-dioxothian-4-yl]hexahydro-pyrimidin-4-one hydrochloride] came in with a half-inhibitory concentration (IC50) of 59 nM.

In the case of `C[C@H]1C[C@@H](N2C(=N)N[C@](C)(c3cccc(-c4ccc(Cl)cn4)c3Cl)CC2=O)CCS1(=O)=O` (relative stereo) [Example 75, (6S)-6-[2-Chloro-3-(5-chloro-pyridin-2-yl)phenyl]-2-imino-6-methyl-3-[(2S*,4S*)-2-methyl-1,1-dioxothian-4-yl]hexahydro-pyrimidin-4-one hydrochloride], the IC50 amounted to 217 nM.

`C[C@H]1C[C@H](N2C(=N)N[C@](C)(c3cccc(-c4ccc(Cl)cn4)c3Cl)CC2=O)CCS1(=O)=O` (relative stereo) [Example 76, (6S)-6-[2-Chloro-3-(5-chloro-pyridin-2-yl)phenyl]-2-imino-6-methyl-3-[(2S*,4R*)-2-methyl-1,1-dioxothian-4-yl]hexahydro-pyrimidin-4-one hydrochloride] yielded a 50% inhibitory concentration (IC50) of 2460 nM.

Take `C[C@@H]1C[C@@H](N2C(=N)N[C@](C)(c3cccc(-c4ccc(Cl)cn4)c3Cl)CC2=O)CCS1(=O)=O` (relative stereo) [Example 77, (6S)-6-[2-Chloro-3-(5-chloro-pyridin-2-yl)phenyl]-2-imino-6-methyl-3-[(2R*,4S*)-2-methyl-1,1-dioxothian-4-yl]hexahydro-pyrimidin-4-one hydrochloride]: the midpoint of inhibition, the IC50, lay at 460 nM.

As to `C[C@H]1C[C@@H](N2C(=N)N[C@](C)(c3cccc(-c4ccc(OC(F)(F)F)nc4)c3Cl)CC2=O)CCS1(=O)=O` (relative stereo) [Example 78, (6S)-6-{2-Chloro-3-[6-(trifluoro-methoxy)pyridin-3-yl]phenyl}-2-imino-6-methyl-3-[(2S*,4S*)-2-methyl-1,1-dioxothian-4-yl]-hexahydropyrimidin-4-one hydrochloride], the IC50 came out at 365 nM.

`C[C@@H]1C[C@H](N2C(=N)N[C@](C)(c3cccc(-c4ccc(OC(F)(F)F)nc4)c3Cl)CC2=O)CCS1(=O)=O` (relative stereo) [Example 79, (6S)-6-{2-Chloro-3-[6-(trifluoro-methoxy)pyridin-3-yl]phenyl}-2-imino-6-methyl-3-[(2R*,4R*)-2-methyl-1,1-dioxothian-4-yl]-hexahydropyrimidin-4-one hydrochloride] yielded an IC50 of 107 nM.

`C[C@H]1C[C@H](N2C(=N)N[C@](C)(c3cccc(-c4ccc(OC(F)(F)F)nc4)c3Cl)CC2=O)CCS1(=O)=O` (relative stereo) [Example 80, (6S)-6-{2-Chloro-3-[6-(trifluoro-methoxy)pyridin-3-yl]phenyl}-2-imino-6-methyl-3-[(2S*,4R*)-2-methyl-1,1-dioxothian-4-yl]-hexahydropyrimidin-4-one hydrochloride] showed a half-maximal inhibitory concentration (IC50) of 1700 nM.

For `C[C@@H]1C[C@@H](N2C(=N)N[C@](C)(c3cccc(-c4ccc(OC(F)(F)F)nc4)c3Cl)CC2=O)CCS1(=O)=O` (relative stereo) [Example 81, (6S)-6-{2-Chloro-3-[6-(trifluoro-methoxy)pyridin-3-yl]phenyl}-2-imino-6-methyl-3-[(2R*,4S*)-2-methyl-1,1-dioxothian-4-yl]-hexahydropyrimidin-4-one hydrochloride], the half-maximal inhibitory concentration (IC50) was 420 nM.

In turn, `C[C@H]1C[C@@H](N2C(=N)N[C@](C)(c3cccc(-c4cncc(Cl)c4)c3Cl)CC2=O)CC[C@H]1O` (relative stereo) [Example 82, (6S)-6-[2-Chloro-3-(5-chloro-pyridin-3-yl)phenyl]-3-[(1S*,3S*,4R*)-4-hydroxy-3-methylcyclohexyl]-2-imino-6-methylhexahydropyrimidin-4-one hydrochloride] displayed an IC50 of 265 nM.

In turn, `C[C@@H]1C[C@H](N2C(=N)N[C@](C)(c3cccc(-c4cncc(Cl)c4)c3Cl)CC2=O)CC[C@@H]1O` (relative stereo) [Example 83, (6S)-6-[2-Chloro-3-(5-chloro-pyridin-3-yl)phenyl]-3-[(1R*,3R*,4S*)-4-hydroxy-3-methylcyclohexyl]-2-imino-6-methylhexahydropyrimidin-4-one hydrochloride] showed an IC50 of 52 nM.

`C[C@@]1(c2cccc(-c3cnn(CC(F)(F)F)c3)c2Cl)CC(=O)N([C@@H]2CCC(F)(F)[C@H](O)C2)C(=N)N1` (relative stereo) [Example 84, (6S)-6-{2-Chloro-3-[1-(2,2,2-trifluoroethyl)pyrazol-4-yl]phenyl}-3-[(1R*,3R*)-4,4-difluoro-3-hydroxycyclohexyl]-2-imino-6-methylhexahydropyrimidin-4-one hydrochloride] returned a half-inhibitory concentration (IC50) of 339 nM.

Turning to `C[C@@]1(c2cccc(-c3cnn(CC(F)(F)F)c3)c2Cl)CC(=O)N([C@H]2CCC(F)(F)[C@@H](O)C2)C(=N)N1` (relative stereo) [Example 85, (6S)-6-{2-Chloro-3-[1-(2,2,2-trifluoroethyl)pyrazol-4-yl]phenyl}-3-[(1S*,3S*)-4,4-difluoro-3-hydroxycyclohexyl]-2-imino-6-methylhexahydropyrimidin-4-one hydrochloride], it took 2670 nM to reach half-maximal inhibition (IC50).

`C[C@@]1(c2cccc(-c3cc(C4CC4)no3)c2Cl)CC(=O)N([C@@H]2CCC(F)(F)[C@H](O)C2)C(=N)N1` (relative stereo) [Example 86, (6S)-6-[2-Chloro-3-(3-cyclopropyl-isoxazol-5-yl)phenyl]-3-[(1R*,3R*)-4,4-difluoro-3-hydroxy-cyclohexyl]-2-imino-6-methyl-hexahydropyrimidin-4-one hydrochloride] yielded an IC50 of 286 nM.

As to `C[C@@]1(c2cccc(-c3cc(C4CC4)no3)c2Cl)CC(=O)N([C@H]2CCC(F)(F)[C@@H](O)C2)C(=N)N1` (relative stereo) [Example 87, (6S)-6-[2-Chloro-3-(3-cyclopropyl-isoxazol-5-yl)phenyl]-3-[(1S*,3S*)-4,4-difluoro-3-hydroxycyclohexyl]-2-imino-6-methylhexahydro-pyrimidin-4-one hydrochloride], the IC50 worked out at 2910 nM.

The same experiment, now with this note: Plasmodium falciparum, Erythrocyte; P. falciparum 3D7 in human erythrocytes, 72 h incubation, SYBR green fluorescence; read-out: IC50.
As for `C[C@@H]1C[C@@H](N2C(=N)N[C@](C)(c3cccc(-c4ccc(OC(F)F)nc4)c3Cl)CC2=O)CCS1(=O)=O` (relative stereo) [Example 72, (6S)-6-{2-Chloro-3-[6-(difluoro-methoxy)pyridin-3-yl|phenyl}-2-imino-6-methyl-3-[(2R*,4S*)-2-methyl-1,1-dioxothian-4-yl]-hexahydropyrimidin-4-one hydrochloride], the IC50 is 913 nM.

As a reminder, the IC50 is the concentration needed to halve the response being measured.
